Source: US20050009787A1, “Micronutrient phosphates as dietary and health supplements” (priority 2001, published 2005)

Key:
[1] = cited from earlier work
[2] = Bioavailability of tocopheryl phosphate in rats (tocopheryl phosphate in liver, ES/MS); assay type: in vivo, male Sprague-Dawley rats; conditions: rat
Experimental: The rats were dosed using the following protocol: • (a) A single dose of the compound was administered to male Sprague-Dawley rats (see Table 1). Oral gavage was with an 18 g gavage needle and 1 ml syringe. Intravenous was with a 26 g hypodermic needle and 1 ml syringe. • (b) Twenty four hours after administrations, the rats were anaesthetized with 60 mg/kg of Nembutal (an anaesthetic from Meril, USA) by intra peritoneal injection. • (c) Once the rats were under deep anaesthesia, a sample of blood was taken from the tail vein, and the femoral vein was exposed and injected with 500 units of heparin. The abdominal cavity was opened and the rat perfused with saline. The liver, heart, epidydimal fat pad, hind-leg muscle and brain was removed and frozen in liquid nitrogen.
The livers were extracted according to the following method: • (a) Homogenise 1 g of liver in 10 ml dichloromethane. • (b) Add 0.1 mg of ditocopheryl phosphate (1 mg/ml in 50% tetrahydrofuran) as an internal standard. • (c) Mix using homogeniser and centrifuge sample. • (d) Remove and evaporate dichloromethane. • (e) Add 9 ml of KOH (2M) and stir for one hour at room temperature. • (f) Add 10 ml hexane, shake and remove hexane (upper) layer. • (g) Add 10 ml HCl (2M) to the 9 ml KOH (2M) solution. • (h) Add 10 ml hexane, shake and remove hexane layer. • (i) Evaporate hexane layer to dryness.
The extracts were analysed and quantitated for TP (μg) content by electrospray mass spectrometry using the established calibration curve (tocopheryl phosphate vs ditocopheryl phosphate).
ES/MS analysis conditions: Sample was dissolved in 1 ml tetrahydrofuran (THF) containing 1% ammonia, 20 μl was injected into the sample loop. The sample was eluted with THF:water (9:1) 20 μl/min. Mass spectrometric analysis was conducted in negative ion mode with cone voltage of 40V using Micromass Platform.

[3] = Stability of tocopheryl phosphate arginine complex in a beverage (pH, turbidity, degradation); assay type: physicochemical
Experimental: Four ml was added to each 500 ml bottle using sterile conditions. Three treatment groups were used for each drink: 4° C., 37° C. and room temperature (RT). The drinks were monitored for bacterial growth and contamination on a weekly basis, both visually, and by plating a sample onto LB agar plates, which were grown for 48 hours at 37° C.

COC1=C(OC)C(=O)C(C/C=C(\C)CC/C=C(\C)CC/C=C(\C)CC/C=C(\C)CC/C=C(\C)CC/C=C(\C)CC/C=C(\C)CC/C=C(\C)CC/C=C(\C)CCC=C(C)C)=C(C)C1=O [CoQ10, ubiquinone]
destruction of CoQ10 by boiling ([1]; boiling): no detectable destruction
destruction of CoQ10 by frying ([1]; frying): 14-32%

CC(=O)Oc1c(C)c(C)c2c(c1C)CCC(C)(CCC[C@H](C)CCC[C@H](C)CCCC(C)C)O2 (some centres unmarked) [Tocopheryl acetate, reference compound]
amount of tocopheryl phosphate present compared to the controls ([2]; oral administration): did not result in a significant increase

Tocopheryl phosphate
amount of tocopheryl phosphate detected in the livers ([2]; enteric coating preparation or oral solution): increase
amount of tocopheryl phosphate present in the liver after 24 hours ([2]; intravenous administration, vs controls): significant increase
Tocopheryl phosphate in liver ([2]; intravenous, 10 mg/kg single dose, 24 h after administration): 24.0 µg/g
Tocopheryl phosphate in liver ([2]; intravenous, 30 mg/kg single dose, 24 h): 28.0 µg/g
Tocopheryl phosphate in liver ([2]; oral (enteric coated), 30 mg/kg single dose, 24 h): 19.3 µg/g
Tocopheryl phosphate in liver ([2]; oral, 10 mg/kg single dose, 24 h): 19.2 µg/g
Tocopheryl phosphate in liver ([2]; oral, 30 mg/kg single dose, 24 h): 18.4 µg/g

tocopheryl phosphate arginine complex
Turbidity ([3]; blue Musashi drink with TP, 4° C.): 12.54 NTU
Turbidity ([3]; blue Musashi drink with TP, 37° C.): 28.55 NTU
Turbidity ([3]; blue Musashi drink with TP, RT): 24.05 NTU
amount of degradation of the complex ([3]; in acidic drinks, at the pH required for biological stability): negligible
Turbidity ([3]; orange Musashi drink with TP, 4° C.): 232.0 NTU
Turbidity ([3]; orange Musashi drink with TP, 37° C.): 220.0 NTU
Turbidity ([3]; orange Musashi drink with TP, RT): 224.0 NTU
